test system: SHSY5Y; assay: Analogue screening assay, measured by MTT; assay type: cell-based; settings: as a percentage compared to SHMOOSE (SHMOOSE activity as 100%)
From the text: FIG. 10 depicts an analogue screening assay, measured by MTT. Top: each bar represents a fragment (25-amino acid in length) of SHMOOSE. Bottom: each bar represents a phosphomimetic fragment (25-amino acid in length) of SHMOOSE. Cell model is SHSY5Y. The Inventors made 103 analogues/derivatives (see Table 1).
The Inventors made 103 analogues (Table 1). Referring to FIG. 10, in the top figure, each bar represents a 25-amino acid fragment of the SHMOOSE peptide. […] The sequence length of the analogue is 14 amino acids and 3 different analysis windows of the analogue, each having 11 amino acids, were characterized. […]

First: 84 (NFGADPNKDNNHAHDDNHPNPNFPN) [compound 84]
Second: 35 (GPKNFGATPNKSNNHAHYYNHPNPN) [compound 35]
The “% Efficacy” value of the first is lower: −84.90% for the first, 8.68% for the second.

Compared with “63 (DDPLVLGPKNFGADPNKDNNHAHDD) [compound 63]”, “3 (PCLTTWLSQLLKDNSYPLVLGPKNF) [compound 3]” is higher in “% Efficacy” value: −216.49% for the first, 115.35% for the second.

First: 15 (DNSYPLVLGPKNFGATPNKSNNHAH) [compound 15]
Second: 31 (PNKSNNHAHYYNHPNPDFPNSPHPY) [compound 31]
The “% Efficacy” value of the first is higher: 51.51% for the first, −477.36% for the second.

Compared with “18 (YPLVLGPKNFGATPNKSNNHAHYYN) [compound 18]”, “107 (MPSCLTTWISSIISDNSYPLVLGPKNFGATPNKSNNHAHYYNHPNPDFPNSPHPYHPR) [compound 107]” is higher in “% Efficacy” value: −133.09% for the first, 134.2% for the second.

Going from “62 (NDDPLVLGPKNFGADPNKDNNHAHD) [compound 62]” to “4 (CLTTWLSQLLKDNSYPLVLGPKNFG) [compound 4]”, the “% Efficacy” value rises from −250.35% to 12.47%.

Compared with “73 (FGADPNKDNNHAHDDNHPNPDFPND) [compound 73]”, “86 (GADPNKDNNHAHDDNHPNPNFPNDP) [compound 86]” is higher in “% Efficacy” value: −306.02% for the first, −62.75% for the second.

First: 5 (LTTWLSQLLKDNSYPLVLGPKNFGA) [compound 5]
Second: 42 (TPNKSNNHAHYYNHPNPNFPNSPHP) [compound 42]
The “% Efficacy” value of the first is higher: −13.61% for the first, −392.68% for the second.

Going from “101 (MPPCLTTWISQIIKDNSYPLVLGPKNFGATPNKSNNHAHYYNHPNPDFPNSPHPYHPR) [compound 101]” to “50 (CLDDWLDQLLKDNDDPLVLGPKNFG) [compound 50]”, the “% Efficacy” value falls from −10.26% to −340.42%.

Going from “14 (KDNSYPLVLGPKNFGATPNKSNNHA) [compound 14]” to “53 (DWLDQLLKDNDDPLVLGPKNFGADP) [compound 53]”, the “% Efficacy” value rises from −147.96% to −76.54%.

First: 56 (DQLLKDNDDPLVLGPKNFGADPNKD) [compound 56]
Second: 9 (LSQLLKDNSYPLVLGPKNFGATPNK) [compound 9]
The “% Efficacy” value of the first is lower: −93.30% for the first, −82.17% for the second.

First: 85 (FGADPNKDNNHAHDDNHPNPNFPND) [compound 85]
Second: 51 (LDDWLDQLLKDNDDPLVLGPKNFGA) [compound 51]
The “% Efficacy” value of the first is lower: −476.83% for the first, −132.69% for the second.

Going from “52 (DDWLDQLLKDNDDPLVLGPKNFGAD) [compound 52]” to “65 (PLVLGPKNFGADPNKDNNHAHDDNH) [compound 65]”, the “% Efficacy” value falls from −38.98% to −163.31%.

Going from “97 (MPPCITTWLSQLLKDNSYPLVLGPKNFGATPNKSNNHAHYYNHPNPDFPNSPHPYHPR) [compound 97]” to “98 (MPPCITTWISQLLKDNSYPLVLGPKNFGATPNKSNNHAHYYNHPNPDFPNSPHPYHPR) [compound 98]”, the “% Efficacy” value rises from −1.709% to 1.709%.

First: 33 (KSNNHAHYYNHPNPDFPNSPHPYHP) [compound 33]
Second: 54 (WLDQLLKDNDDPLVLGPKNFGADPN) [compound 54]
The “% Efficacy” value of the first is lower: −119.66% for the first, −45.99% for the second.

First: 46 (SNNHAHYYNHPNPNFPNSPHPYHPR) [compound 46]
Second: 76 (DPNKDNNHAHDDNHPNPDFPNDPHP) [compound 76]
The “% Efficacy” value of the first is higher: −59.27% for the first, −184.63% for the second.

Going from “90 (NKDNNHAHDDNHPNPNFPNDPHPDH) [compound 90]” to “71 (KNFGADPNKDNNHAHDDNHPNPDFP) [compound 71]”, the “% Efficacy” value rises from −226.81% to −113.32%.

Compared with “21 (VLGPKNFGATPNKSNNHAHYYNHPN) [compound 21]”, “6 (TTWLSQLLKDNSYPLVLGPKNFGAT) [compound 6]” is higher in “% Efficacy” value: −50.24% for the first, −42.74% for the second.

Compared with “57 (QLLKDNDDPLVLGPKNFGADPNKDN) [compound 57]”, “67 (VLGPKNFGADPNKDNNHAHDDNHPN) [compound 67]” is lower in “% Efficacy” value: −1.36% for the first, −231.08% for the second.

Going from “102 (MPPCLTTWLSQIIKDNSYPLVLGPKNFGATPNKSNNHAHYYNHPNPDFPNSPHPYHPR) [compound 102]” to “40 (GATPNKSNNHAHYYNHPNPNFPNSP) [compound 40]”, the “% Efficacy” value falls from −25.64% to −302.11%.

First: 75 (ADPNKDNNHAHDDNHPNPDFPNDPH) [compound 75]
Second: 88 (DPNKDNNHAHDDNHPNPNFPNDPHP) [compound 88]
The “% Efficacy” value of the first is lower: −157.10% for the first, −84.19% for the second.

Compared with “28 (GATPNKSNNHAHYYNHPNPDFPNSP) [compound 28]”, “16 (NSYPLVLGPKNFGATPNKSNNHAHY) [compound 16]” is higher in “% Efficacy” value: −229.42% for the first, −79.03% for the second.

Compared with “30 (TPNKSNNHAHYYNHPNPDFPNSPHP) [compound 30]”, “72 (NFGADPNKDNNHAHDDNHPNPDFPN) [compound 72]” is higher in “% Efficacy” value: −367.82% for the first, −28.57% for the second.

Compared with “79 (KDNNHAHDDNHPNPDFPNDPHPDHP) [compound 79]”, “27 (FGATPNKSNNHAHYYNHPNPDFPNS) [compound 27]” is lower in “% Efficacy” value: −183.31% for the first, −226.16% for the second.

Going from “105 (MPSCLTTWLSSLLKDNSYPLVLGPKNFGATPNKSNNHAHYYNHPNPDFPNSPHPYHPR) [compound 105]” to “78 (NKDNNHAHDDNHPNPDFPNDPHPDH) [compound 78]”, the “% Efficacy” value falls from 44.44% to −240.90%.

Going from “37 (KNFGATPNKSNNHAHYYNHPNPNFP) [compound 37]” to “32 (NKSNNHAHYYNHPNPDFPNSPHPYH) [compound 32]”, the “% Efficacy” value rises from −227.50% to −145.56%.

Going from “55 (LDQLLKDNDDPLVLGPKNFGADPNK) [compound 55]” to “38 (NFGATPNKSNNHAHYYNHPNPNFPN) [compound 38]”, the “% Efficacy” value falls from −38.64% to −196.67%.

First: 17 (SYPLVLGPKNFGATPNKSNNHAHYY) [compound 17]
Second: 41 (ATPNKSNNHAHYYNHPNPNFPNSPH) [compound 41]
The “% Efficacy” value of the first is lower: −195.89% for the first, −188.45% for the second.

Compared with “47 (MPPCLDDWLDQLLKDNDDPLVLGPK) [compound 47]”, “99 (MPPCITTWISQILKDNSYPLVLGPKNFGATPNKSNNHAHYYNHPNPDFPNSPHPYHPR) [compound 99]” is higher in “% Efficacy” value: −150.17% for the first, −7.692% for the second.

Going from “13 (LKDNSYPLVLGPKNFGATPNKSNNH) [compound 13]” to “25 (KNFGATPNKSNNHAHYYNHPNPDFP) [compound 25]”, the “% Efficacy” value rises from −58.60% to −8.52%.

Compared with “58 (LLKDNDDPLVLGPKNFGADPNKDNN) [compound 58]”, “12 (LLKDNSYPLVLGPKNFGATPNKSNN) [compound 12]” is lower in “% Efficacy” value: −58.59% for the first, −97.85% for the second.

Compared with “36 (PKNFGATPNKSNNHAHYYNHPNPNF) [compound 36]”, “24 (PKNFGATPNKSNNHAHYYNHPNPDF) [compound 24]” is lower in “% Efficacy” value: −120.40% for the first, −185.28% for the second.

First: 26 (NFGATPNKSNNHAHYYNHPNPDFPN) [compound 26]
Second: 7 (TWLSQLLKDNSYPLVLGPKNFGATP) [compound 7]
The “% Efficacy” value of the first is lower: −232.44% for the first, −113.24% for the second.

Compared with “34 (SNNHAHYYNHPNPDFPNSPHPYHPR) [compound 34]”, “10 (SQLLKDNSYPLVLGPKNFGATPNKS) [compound 10]” is higher in “% Efficacy” value: −195.91% for the first, −107.19% for the second.

First: 92 (DNNHAHDDNHPNPNFPNDPHPDHPR) [compound 92]
Second: 11 (QLLKDNSYPLVLGPKNFGATPNKSN) [compound 11]
The “% Efficacy” value of the first is lower: −85.47% for the first, −85.19% for the second.

Going from “49 (PCLDDWLDQLLKDNDDPLVLGPKNF) [compound 49]” to “22 (LGPKNFGATPNKSNNHAHYYNHPNP) [compound 22]”, the “% Efficacy” value rises from −168.90% to −140.81%.

Going from “1 (MPPCLTTWLSQLLKDNSYPLVLGPK) [compound 1]” to “100 (MPPCITTWISQIIKDNSYPLVLGPKNFGATPNKSNNHAHYYNHPNPDFPNSPHPYHPR) [compound 100]”, the “% Efficacy” value falls from 62.23% to 4.274%.

Compared with “80 (DNNHAHDDNHPNPDFPNDPHPDHPR) [compound 80]”, “91 (KDNNHAHDDNHPNPNFPNDPHPDHP) [compound 91]” is higher in “% Efficacy” value: −214.13% for the first, −104.32% for the second.

Going from “60 (KDNDDPLVLGPKNFGADPNKDNNHA) [compound 60]” to “19 (PLVLGPKNFGATPNKSNNHAHYYNH) [compound 19]”, the “% Efficacy” value falls from −146.91% to −191.36%.

Compared with “104 (MPSCLTTWLSQLLKDNSYPLVLGPKNFGATPNKSNNHAHYYNHPNPDFPNSPHPYHPR) [compound 104]”, “64 (DPLVLGPKNFGADPNKDNNHAHDDN) [compound 64]” is lower in “% Efficacy” value: 82.05% for the first, −254.41% for the second.

Going from “74 (GADPNKDNNHAHDDNHPNPDFPNDP) [compound 74]” to “69 (GPKNFGADPNKDNNHAHDDNHPNPD) [compound 69]”, the “% Efficacy” value rises from −228.29% to −184.35%.

Compared with “103 (MPPCLTTWLSQLIKDNSYPLVLGPKNFGATPNKSNNHAHYYNHPNPDFPNSPHPYHPR) [compound 103]”, “29 (ATPNKSNNHAHYYNHPNPDFPNSPH) [compound 29]” is lower in “% Efficacy” value: 86.32% for the first, −262.37% for the second.

Going from “23 (GPKNFGATPNKSNNHAHYYNHPNPD) [compound 23]” to “45 (KSNNHAHYYNHPNPNFPNSPHPYHP) [compound 45]”, the “% Efficacy” value falls from −210.91% to −292.14%.

Going from “70 (PKNFGADPNKDNNHAHDDNHPNPDF) [compound 70]” to “20 (LVLGPKNFGATPNKSNNHAHYYNHP) [compound 20]”, the “% Efficacy” value falls from −157.35% to −248.54%.

Going from “48 (PPCLDDWLDQLLKDNDDPLVLGPKN) [compound 48]” to “81 (GPKNFGADPNKDNNHAHDDNHPNPN) [compound 81]”, the “% Efficacy” value falls from −159.22% to −172.67%.

Compared with “8 (WLSQLLKDNSYPLVLGPKNFGATPN) [compound 8]”, “66 (LVLGPKNFGADPNKDNNHAHDDNHP) [compound 66]” is lower in “% Efficacy” value: −3.65% for the first, −157.61% for the second.

Compared with “68 (LGPKNFGADPNKDNNHAHDDNHPNP) [compound 68]”, “106 (MPSCLTTWLSSLLSDNSYPLVLGPKNFGATPNKSNNHAHYYNHPNPDFPNSPHPYHPR) [compound 106]” is higher in “% Efficacy” value: −144.36% for the first, −14.53% for the second.

For “82 (PKNFGADPNKDNNHAHDDNHPNPNF) [compound 82]”, the “% Efficacy” value was −146.18%.
